Results published in ChEMBL document CHEMBL1201862, “PubChem BioAssay data set” (2004).
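Dose response: 5 concentrations. Exposure: 48 h. Format: 96-well plates. Endpoint: linear interpolation; highest concentration if not reached. GI50 is the concentration that inhibits growth by half.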 Active and inactive are the calls of the source. No stated cut-off is given here; in the data, active = GI50 up to about 1.1 µM and inactive = higher.

Experiments:
Test in all cases: inhibition of tumour cell growth, NCI panel, 48 h
HOP-92 = system: HOP-92
NCI-H460 = system: NCI-H460
COLO 205 = system: COLO 205
MDA-MB-435 = system: MDA-MB-435
HL-60 = system: HL-60
OVCAR-5 = system: OVCAR-5
OVCAR-3 = system: OVCAR-3
NCI-H226 = system: NCI-H226
SNB-75 = system: SNB-75
PC-3 = system: PC-3
SF-268 = system: SF-268
HOP-62 = system: HOP-62
SK-MEL-5 = system: SK-MEL-5
HCT-116 = system: HCT-116
DU-145 = system: DU-145
HCT-15 = system: HCT-15
M14 = system: M14
IGROV-1 = system: IGROV-1
SF-539 = system: SF-539
HCC 2998 = system: HCC 2998

SMILES | GI50 (HOP-92) | GI50 (NCI-H460) | GI50 (COLO 205) | GI50 (MDA-MB-435) | GI50 (HL-60) | GI50 (OVCAR-5) | GI50 (OVCAR-3) | GI50 (NCI-H226) | GI50 (SNB-75) | GI50 (PC-3) | GI50 (SF-268) | GI50 (HOP-62) | GI50 (SK-MEL-5) | GI50 (HCT-116) | GI50 (DU-145) | GI50 (HCT-15) [µM] | GI50 (M14) | GI50 (IGROV-1) | GI50 (SF-539) | GI50 (HCC 2998)
CCc1nnc2sc(-c3ccc(-c4ccc(Cl)cc4Cl)o3)nn12 | 21.4 µM (inactive) | 67 µM (inactive) | 23.1 µM (inactive) | > 100 µM (inactive) | 27 µM (inactive) | > 100 µM (inactive) | 40.6 µM (inactive) | 50.6 µM (inactive) | 21.3 µM (inactive) | 30.1 µM (inactive) | 61.2 µM (inactive) | 61.9 µM (inactive) | 34.2 µM (inactive) | 62.5 µM (inactive) | 72.3 µM (inactive) | 61.7 | > 100 µM (inactive) | > 100 µM (inactive) | – | –
O=C(O)c1cccc2c1/C(=N/Nc1ccccc1)CC2 | > 100 µM (inactive) | 32.1 µM (inactive) | – | > 100 µM (inactive) | – | > 100 µM (inactive) | > 100 µM (inactive) | 19.9 µM (inactive) | – | > 100 µM (inactive) | > 100 µM (inactive) | > 100 µM (inactive) | > 100 µM (inactive) | > 100 µM (inactive) | > 100 µM (inactive) | > 100 | 16.6 µM (inactive) | > 100 µM (inactive) | > 100 µM (inactive) | > 100 µM (inactive)
O=C1/C(=C/c2cccc([N+](=O)[O-])c2)N=C(c2ccccc2)N1c1nc2c(Cl)cc(Cl)cc2s1 | 24.6 µM (inactive) | 27.5 µM (inactive) | 31.8 µM (inactive) | 20.8 µM (inactive) | 21.7 µM (inactive) | 26.7 µM (inactive) | 17.1 µM (inactive) | – | – | 24 µM (inactive) | 42.6 µM (inactive) | 19.7 µM (inactive) | 16.9 µM (inactive) | 19.5 µM (inactive) | 27 µM (inactive) | 29.3 | 21.8 µM (inactive) | 23.2 µM (inactive) | 22.8 µM (inactive) | 27.5 µM (inactive)
Cc1ccc(-c2ccc(Nc3c4ccccc4nc4ccccc34)cc2)cn1 | 0.322 µM (active) | 1.44 µM (inactive) | 3.37 µM (inactive) | 4.43 µM (inactive) | – | 19.5 µM (inactive) | 2.63 µM (inactive) | – | – | 4.97 µM (inactive) | 8.75 µM (inactive) | 1.82 µM (inactive) | 4.41 µM (inactive) | 2.91 µM (inactive) | 3.77 µM (inactive) | 3.75 | 2.95 µM (inactive) | 5.43 µM (inactive) | 3.85 µM (inactive) | 29 µM (inactive)
O=C(COC(=O)c1ccccc1)c1ccc(Br)cc1 | 14.6 µM (inactive) | 18.5 µM (inactive) | 13.6 µM (inactive) | 6.78 µM (inactive) | 6.64 µM (inactive) | 10.7 µM (inactive) | 12.9 µM (inactive) | – | 16.4 µM (inactive) | 16.3 µM (inactive) | 19.6 µM (inactive) | 18.5 µM (inactive) | 14.5 µM (inactive) | 8.95 µM (inactive) | 19.5 µM (inactive) | 3.35 | 14.5 µM (inactive) | 1 µM (active) | 15.1 µM (inactive) | 13.3 µM (inactive)
CC12CCC3c4ccc(O)cc4CCC3C1C/C(=N\O)C2O (configuration not stated) | > 100 µM (inactive) | > 100 µM (inactive) | > 100 µM (inactive) | > 100 µM (inactive) | 92.9 µM (inactive) | > 100 µM (inactive) | > 100 µM (inactive) | > 100 µM (inactive) | 36.8 µM (inactive) | > 100 µM (inactive) | > 100 µM (inactive) | > 100 µM (inactive) | > 100 µM (inactive) | > 100 µM (inactive) | > 100 µM (inactive) | > 100 | > 100 µM (inactive) | > 100 µM (inactive) | 85.1 µM (inactive) | –
COC1(OC)c2no[n+]([O-])c2CCC1O (configuration not stated) | 0.0255 µM (active) | > 100 µM (inactive) | > 100 µM (inactive) | > 100 µM (inactive) | – | > 100 µM (inactive) | > 100 µM (inactive) | > 100 µM (inactive) | – | > 100 µM (inactive) | > 100 µM (inactive) | > 100 µM (inactive) | > 100 µM (inactive) | > 100 µM (inactive) | > 100 µM (inactive) | > 100 | > 100 µM (inactive) | > 100 µM (inactive) | > 100 µM (inactive) | > 100 µM (inactive)
C#CC1(O)CCCCCCCCC2(CCCCCCCC1)OCCO2 | 17.4 µM (inactive) | 21.3 µM (inactive) | 17.4 µM (inactive) | 19.4 µM (inactive) | 13.5 µM (inactive) | 22 µM (inactive) | 15.4 µM (inactive) | 17 µM (inactive) | – | 12.8 µM (inactive) | 17.3 µM (inactive) | 29.7 µM (inactive) | 19.2 µM (inactive) | 16.5 µM (inactive) | 17.3 µM (inactive) | 18 | 19.6 µM (inactive) | 16.7 µM (inactive) | 18 µM (inactive) | 15.5 µM (inactive)
Cc1ccc(-c2nc3cc(F)c(N4CCN(C)CC4)cc3[nH]2)cc1 | 66.5 µM (inactive) | 16.9 µM (inactive) | 15.9 µM (inactive) | 22.4 µM (inactive) | 21.4 µM (inactive) | 21.9 µM (inactive) | – | 8.3 µM (inactive) | – | 24.1 µM (inactive) | 15.3 µM (inactive) | 15.8 µM (inactive) | 11.4 µM (inactive) | 19.6 µM (inactive) | 31.1 µM (inactive) | 6.32 | 16.7 µM (inactive) | 22.7 µM (inactive) | – | 11.9 µM (inactive)
Cc1cc2c(cc1-c1cc3c(cc1C)C(C(C)C)=C(O)C(=O)/C3=C\Nc1nc(-c3ccccc3)cs1)/C(=C/Nc1nc(-c3ccccc3)cs1)C(=O)C(O)=C2C(C)C | 18.8 µM (inactive) | 18.2 µM (inactive) | 31.6 µM (inactive) | 16.9 µM (inactive) | 25.7 µM (inactive) | > 10 µM (inactive) | 15.3 µM (inactive) | 22.2 µM (inactive) | 35.4 µM (inactive) | 15.7 µM (inactive) | 24.6 µM (inactive) | 15.2 µM (inactive) | 16.7 µM (inactive) | 8.61 µM (inactive) | 23.7 µM (inactive) | 25.4 | 12.9 µM (inactive) | 16.8 µM (inactive) | 18.2 µM (inactive) | –
CC1=NN(c2cccc(Cl)c2)C2(SCC(=O)N2c2nc3ccccc3s2)C1=CC=Cc1ccccc1 (configuration not stated) | 17.7 µM (inactive) | 30.5 µM (inactive) | – | 31 µM (inactive) | 1.47 µM (inactive) | 51.6 µM (inactive) | 39.6 µM (inactive) | 53 µM (inactive) | – | 29.7 µM (inactive) | 31.6 µM (inactive) | 36.1 µM (inactive) | 18.9 µM (inactive) | 22.6 µM (inactive) | 21.3 µM (inactive) | 29.2 | 32.1 µM (inactive) | 31.3 µM (inactive) | 44.1 µM (inactive) | 32.3 µM (inactive)
O=C(NC(=S)Nc1ccc(Br)cc1)c1ccc2c(c1)Sc1ccccc1O2 | 22.5 µM (inactive) | > 100 µM (inactive) | > 100 µM (inactive) | > 100 µM (inactive) | > 100 µM (inactive) | > 100 µM (inactive) | > 100 µM (inactive) | > 100 µM (inactive) | 3.04 µM (inactive) | > 100 µM (inactive) | 48.3 µM (inactive) | 79.8 µM (inactive) | > 100 µM (inactive) | > 100 µM (inactive) | > 100 µM (inactive) | > 100 | > 100 µM (inactive) | 49.3 µM (inactive) | > 100 µM (inactive) | –
COC(=O)CC1(O)C(C=C(C)C)C(C(=O)OC)C(=O)C(C(=O)OC)C1C(=O)OC (configuration not stated) | > 100 µM (inactive) | > 100 µM (inactive) | > 100 µM (inactive) | > 100 µM (inactive) | > 100 µM (inactive) | > 100 µM (inactive) | > 100 µM (inactive) | > 100 µM (inactive) | – | > 100 µM (inactive) | > 100 µM (inactive) | > 100 µM (inactive) | > 100 µM (inactive) | > 100 µM (inactive) | > 100 µM (inactive) | > 100 | > 100 µM (inactive) | > 100 µM (inactive) | > 100 µM (inactive) | > 100 µM (inactive)
Oc1ccc(Cl)cc1C1=NC(/N=C\c2ccccc2)=NC(c2ccccc2)C1 (configuration not stated) | > 100 µM (inactive) | – | > 100 µM (inactive) | > 100 µM (inactive) | – | > 100 µM (inactive) | 11.4 µM (inactive) | 37.8 µM (inactive) | 17.5 µM (inactive) | > 100 µM (inactive) | 7.19 µM (inactive) | 25.7 µM (inactive) | 14.1 µM (inactive) | 5.94 µM (inactive) | > 100 µM (inactive) | – | > 100 µM (inactive) | 7.01 µM (inactive) | 22.8 µM (inactive) | –
Cc1n[nH]c(=O)n1/N=C/c1cccnc1 | 33.4 µM (inactive) | > 100 µM (inactive) | > 100 µM (inactive) | > 100 µM (inactive) | > 100 µM (inactive) | > 100 µM (inactive) | > 100 µM (inactive) | > 100 µM (inactive) | – | > 100 µM (inactive) | > 100 µM (inactive) | > 100 µM (inactive) | > 100 µM (inactive) | > 100 µM (inactive) | > 100 µM (inactive) | > 100 | > 100 µM (inactive) | > 100 µM (inactive) | > 100 µM (inactive) | > 100 µM (inactive)
